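Exposure lasted 48 hours, with cells grown in 96-well plates and compounds tested at five concentrations. TGI denotes the concentration required for complete inhibition of growth.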
Assays:
Test in all cases: NCI-60 cell line screen, 48 h
SF-539 CNS = tested on: SF-539 CNS
SK-MEL-2 melanoma = tested on: SK-MEL-2 melanoma
IGROV1 ovarian = tested on: IGROV1 ovarian
MDA-N = tested on: MDA-N
HCT-116 colon = tested on: HCT-116 colon
SK-MEL-28 melanoma = tested on: SK-MEL-28 melanoma
NCI-H522 lung = tested on: NCI-H522 lung
SN12C renal = tested on: SN12C renal
OVCAR-3 ovarian = tested on: OVCAR-3 ovarian
HT29 colon = tested on: HT29 colon
HOP-62 NSCLC = tested on: HOP-62 NSCLC
NCI-H23 lung = tested on: NCI-H23 lung
COLO 205 colon = tested on: COLO 205 colon
K-562 leukemia = tested on: K-562 leukemia
EKVX NSCLC = tested on: EKVX NSCLC
MDA-MB-435 = tested on: MDA-MB-435
HS 578T breast = tested on: HS 578T breast
SNB-19 CNS = tested on: SNB-19 CNS
U251 CNS = tested on: U251 CNS
NCI-H226 lung = tested on: NCI-H226 lung
BT-549 breast = tested on: BT-549 breast
MDA-MB-231 breast = tested on: MDA-MB-231 breast
DU-145 prostate = tested on: DU-145 prostate
SR leukemia = tested on: SR leukemia
HOP-92 NSCLC = tested on: HOP-92 NSCLC
SF-268 CNS = tested on: SF-268 CNS
SF-295 CNS = tested on: SF-295 CNS
RPMI-8226 leukemia = tested on: RPMI-8226 leukemia
MALME-3M melanoma = tested on: MALME-3M melanoma
SW-620 colon = tested on: SW-620 colon
A498 renal = tested on: A498 renal
SK-MEL-5 melanoma = tested on: SK-MEL-5 melanoma
T-47D breast = tested on: T-47D breast
HCT-15 colon = tested on: HCT-15 colon
MOLT-4 leukemia = tested on: MOLT-4 leukemia
NCI/ADR-RES ovarian = tested on: NCI/ADR-RES ovarian
A549 NSCLC = tested on: A549 NSCLC
UO-31 renal = tested on: UO-31 renal
786-0 renal = tested on: 786-0 renal
CAKI-1 renal = tested on: CAKI-1 renal
HL-60(TB) leukemia = tested on: HL-60(TB) leukemia
SNB-75 CNS = tested on: SNB-75 CNS
LOX IMVI melanoma = tested on: LOX IMVI melanoma
OVCAR-4 ovarian = tested on: OVCAR-4 ovarian
M14 melanoma = tested on: M14 melanoma
PC-3 prostate = tested on: PC-3 prostate
RXF 393 renal = tested on: RXF 393 renal
HCC-2998 colon = tested on: HCC-2998 colon
SK-OV-3 ovarian = tested on: SK-OV-3 ovarian
MCF7 breast = tested on: MCF7 breast
UACC-62 melanoma = tested on: UACC-62 melanoma
NCI-H460 lung = tested on: NCI-H460 lung
UACC-257 melanoma = tested on: UACC-257 melanoma
KM12 colon = tested on: KM12 colon
OVCAR-8 ovarian = tested on: OVCAR-8 ovarian
OVCAR-5 ovarian = tested on: OVCAR-5 ovarian
TK-10 renal = tested on: TK-10 renal
ACHN renal = tested on: ACHN renal
CCRF-CEM leukemia = tested on: CCRF-CEM leukemia

For COC(=O)C1(Cc2ccc(C)cc2)Cc2c(C)cccc2C1=O (centres undefined), the TGI (SF-539 CNS) was 34.5 µM, the TGI (SK-MEL-2 melanoma) was 28.7 µM and the TGI (IGROV1 ovarian) was over 100 µM. The TGI (MDA-N) was 14.4 µM, the TGI (HCT-116 colon) was 31.9 µM and the TGI (SK-MEL-28 melanoma) was over 100 µM. It also gave a TGI (NCI-H522 lung) of 42.1 µM, a TGI (SN12C renal) of 43.4 µM and a TGI (OVCAR-3 ovarian) of 34.5 µM. The TGI (HT29 colon) was 34.2 µM, the TGI (HOP-62 NSCLC) was 65.5 µM and the TGI (NCI-H23 lung) was over 100 µM. For the same molecule, the TGI (COLO 205 colon) was 33.4 µM, the TGI (K-562 leukemia) was over 100 µM and the TGI (EKVX NSCLC) was over 100 µM. The TGI (MDA-MB-435) was 13.2 µM, the TGI (HS 578T breast) was 46.9 µM and the TGI (SNB-19 CNS) was 90.3 µM. It also gave a TGI (U251 CNS) of 66.5 µM, a TGI (NCI-H226 lung) of 38.4 µM and a TGI (BT-549 breast) of 69.7 µM. The TGI (MDA-MB-231 breast) was over 100 µM, the TGI (DU-145 prostate) was 72 µM and the TGI (SR leukemia) was 50.9 µM. It also gave a TGI (HOP-92 NSCLC) of 43.9 µM, a TGI (SF-268 CNS) of over 100 µM and a TGI (SF-295 CNS) of over 100 µM. The TGI (RPMI-8226 leukemia) was 40.6 µM, the TGI (MALME-3M melanoma) was 30.8 µM and the TGI (SW-620 colon) was over 100 µM. The TGI (A498 renal) was 41.8 µM, the TGI (SK-MEL-5 melanoma) was 26.3 µM and the TGI (T-47D breast) was 72.1 µM. It also gave a TGI (HCT-15 colon) of 75.9 µM, a TGI (MOLT-4 leukemia) of over 100 µM and a TGI (NCI/ADR-RES ovarian) of 80.9 µM. The TGI (A549 NSCLC) was 54.5 µM, the TGI (UO-31 renal) was over 100 µM and the TGI (786-0 renal) was 76.8 µM. It also gave a TGI (CAKI-1 renal) of over 100 µM, a TGI (HL-60(TB) leukemia) of 25 µM and a TGI (SNB-75 CNS) of over 100 µM. For the same molecule, the TGI (LOX IMVI melanoma) was 38.6 µM, the TGI (OVCAR-4 ovarian) was 98.9 µM and the TGI (M14 melanoma) was over 100 µM. The TGI (PC-3 prostate) was 42 µM, the TGI (RXF 393 renal) was 40.5 µM and the TGI (HCC-2998 colon) was 42.2 µM. It also gave a TGI (SK-OV-3 ovarian) of over 100 µM, a TGI (MCF7 breast) of 28.4 µM and a TGI (UACC-62 melanoma) of 92 µM. It also gave a TGI (NCI-H460 lung) of 39.2 µM, a TGI (UACC-257 melanoma) of 91.3 µM and a TGI (KM12 colon) of 39.5 µM. It also gave a TGI (OVCAR-8 ovarian) of over 100 µM, a TGI (OVCAR-5 ovarian) of over 100 µM and a TGI (TK-10 renal) of 86.2 µM. For the same molecule, the TGI (ACHN renal) was 76.9 µM and the TGI (CCRF-CEM leukemia) was over 100 µM.
